Test results as given in ChEMBL document CHEMBL1201862, “PubChem BioAssay data set” (2004).
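Cells were grown in 96-well plates and exposed to each compound for 48 hours at five concentrations; endpoints were interpolated linearly between bracketing concentrations, or set to the highest concentration if not reached. The concentration for 50% growth inhibition is given as GI50.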 Active and inactive are the calls of the source. Rule as the data show it: active = GI50 up to about 1.1 µM and inactive = higher.

Columns and labels:
Test in all cases: DTP human tumour cell line panel, 48 h
[1] = test system: Malme-3M
[2] = test system: EKVX
[3] = test system: ACHN
[4] = test system: OVCAR-5
[5] = test system: UACC-257
[6] = test system: UACC-62
[7] = test system: DU-145
[8] = test system: NCI-H23
[9] = test system: HT-29
[10] = test system: SNB-19
[11] = test system: NCI-H522
[12] = test system: U-251
[13] = test system: SF-295
[14] = test system: KM12
[15] = test system: 786-0
[16] = test system: SN12C
[17] = test system: PC-3
[18] = test system: SK-MEL-2
[19] = test system: SF-539

Row | SMILES | GI50 [1] | GI50 [2] | GI50 [3] | GI50 [4] | GI50 [5] | GI50 [6] | GI50 [7] | GI50 [8] | GI50 [9] | GI50 [10] | GI50 [11] | GI50 [12] | GI50 [13] | GI50 [14] | GI50 [15] | GI50 [16] | GI50 [17] | GI50 [18] | GI50 [19]
1 | Nc1nc(SCc2ccccc2Cl)cc(C(=O)O)n1 | 39.4 µM (inactive) | 54.1 µM (inactive) | 91.4 µM (inactive) | 78 µM (inactive) | > 100 µM (inactive) | > 100 µM (inactive) | > 100 µM (inactive) | 57.4 µM (inactive) | > 100 µM (inactive) | > 100 µM (inactive) | 30.9 µM (inactive) | 54.8 µM (inactive) | 58.2 µM (inactive) | 55.5 µM (inactive) | 79.1 µM (inactive) | 97.1 µM (inactive) | 53.6 µM (inactive) | 58.9 µM (inactive) | 
2 | O=C(NCCN1CCCCC1)c1ccc(I)cc1 | > 100 µM (inactive) | > 100 µM (inactive) | > 100 µM (inactive) | > 100 µM (inactive) | > 100 µM (inactive) |  | 69.3 µM (inactive) | > 100 µM (inactive) | 39.5 µM (inactive) | > 100 µM (inactive) | > 100 µM (inactive) | > 100 µM (inactive) | > 100 µM (inactive) | > 100 µM (inactive) | > 100 µM (inactive) | > 100 µM (inactive) | > 100 µM (inactive) | > 100 µM (inactive) | > 100 µM (inactive)
3 | O=[N+]([O-])c1ccc(/C=N/Nc2nc3ccccc3[nH]2)o1 | 13.8 µM (inactive) | 22.8 µM (inactive) |  | 23.1 µM (inactive) | 21.2 µM (inactive) |  | 13.9 µM (inactive) | 16.2 µM (inactive) | 19.5 µM (inactive) | 26.5 µM (inactive) | 13.3 µM (inactive) | 34 µM (inactive) | 16 µM (inactive) | 10.6 µM (inactive) | 24.9 µM (inactive) | 15.7 µM (inactive) | 15.3 µM (inactive) |  | 4.09 µM (inactive)
4 | COCc1nc(C#N)c(N)o1 | > 10 µM (inactive) | > 10 µM (inactive) | > 10 µM (inactive) |  | > 10 µM (inactive) | > 10 µM (inactive) | > 10 µM (inactive) | > 10 µM (inactive) | > 10 µM (inactive) | > 10 µM (inactive) | > 10 µM (inactive) |  | > 10 µM (inactive) | > 10 µM (inactive) | > 10 µM (inactive) | > 10 µM (inactive) | > 10 µM (inactive) |  | > 10 µM (inactive)
5 | NS(=O)(=O)c1nnc(NS(=O)(=O)c2ccc([N+](=O)[O-])cc2)s1 | > 100 µM (inactive) | > 100 µM (inactive) | > 100 µM (inactive) | > 100 µM (inactive) |  | > 100 µM (inactive) | > 100 µM (inactive) | > 100 µM (inactive) | > 100 µM (inactive) |  | 29.6 µM (inactive) | > 100 µM (inactive) | > 100 µM (inactive) | > 100 µM (inactive) | 37.1 µM (inactive) |  | > 100 µM (inactive) | > 100 µM (inactive) | > 100 µM (inactive)
6 | O=[N+]([O-])c1ccc(Cl)cc1N/N=C/c1ccnc2ccccc12 |  | 22.8 µM (inactive) | > 100 µM (inactive) |  | > 100 µM (inactive) | > 100 µM (inactive) | > 100 µM (inactive) | > 100 µM (inactive) | > 100 µM (inactive) | > 100 µM (inactive) | > 100 µM (inactive) | 17.5 µM (inactive) | > 100 µM (inactive) | > 100 µM (inactive) | > 100 µM (inactive) | > 100 µM (inactive) | > 100 µM (inactive) |  | 21.9 µM (inactive)
7 | CCOC(=O)Cc1c(C)c2cc(C(=O)c3ccccc3)c(O)cc2oc1=O | 25.4 µM (inactive) | 25.5 µM (inactive) | 29.3 µM (inactive) | 26 µM (inactive) | 28.7 µM (inactive) | 35.3 µM (inactive) | 30.8 µM (inactive) | 19.3 µM (inactive) | 39.2 µM (inactive) | 33.7 µM (inactive) | 27 µM (inactive) | 20.8 µM (inactive) | 34.8 µM (inactive) |  | 39.8 µM (inactive) | 31.6 µM (inactive) | 24.8 µM (inactive) | 14.9 µM (inactive) | 20.4 µM (inactive)
8 | CCOC(=O)C1=CC(C)(C(=O)OCC)Nc2c(nc(SC)[nH]c2=O)N1 (configuration not stated) | > 10 µM (inactive) | > 10 µM (inactive) | > 10 µM (inactive) | > 10 µM (inactive) | > 10 µM (inactive) |  | > 10 µM (inactive) | > 10 µM (inactive) | > 10 µM (inactive) | > 10 µM (inactive) | > 10 µM (inactive) | > 10 µM (inactive) | > 10 µM (inactive) | > 10 µM (inactive) | > 10 µM (inactive) | > 10 µM (inactive) | > 10 µM (inactive) | > 10 µM (inactive) | > 10 µM (inactive)
9 | C1CCNCC1.O=C1NC(=S)N/C1=C/c1ccccc1O | > 100 µM (inactive) | > 100 µM (inactive) | > 100 µM (inactive) | > 100 µM (inactive) | > 100 µM (inactive) | > 100 µM (inactive) | > 100 µM (inactive) | > 100 µM (inactive) | > 100 µM (inactive) | > 100 µM (inactive) | 92 µM (inactive) | > 100 µM (inactive) | > 100 µM (inactive) |  | > 100 µM (inactive) | > 100 µM (inactive) | > 100 µM (inactive) | > 100 µM (inactive) | > 100 µM (inactive)
10 | COc1cc(S(=O)(=O)Nc2ccc(-c3csc(N4C(=O)C(C)SC4c4cccs4)n3)cc2)ccc1Cl (configuration not stated) | 60.5 µM (inactive) | 57.5 µM (inactive) | > 100 µM (inactive) | > 100 µM (inactive) |  | 89.3 µM (inactive) | 20.7 µM (inactive) | 39.8 µM (inactive) | 30.5 µM (inactive) |  | 20.6 µM (inactive) |  | > 100 µM (inactive) | 0.931 µM (active) | 34.6 µM (inactive) | 39.3 µM (inactive) | 15.7 µM (inactive) | 6.49 µM (inactive) | 48.9 µM (inactive)
11 | CCOC(=O)Oc1cc2ccsc2c2c1c1ccccc1n2C(=O)OCC | 33.7 µM (inactive) | 60.7 µM (inactive) | 28.3 µM (inactive) | > 100 µM (inactive) | 91 µM (inactive) | 34.4 µM (inactive) | 32.8 µM (inactive) | 52.5 µM (inactive) | 69.5 µM (inactive) |  | 32.1 µM (inactive) | 45 µM (inactive) | 36.1 µM (inactive) | 49.9 µM (inactive) | 34.1 µM (inactive) | 37.8 µM (inactive) | 38.2 µM (inactive) | 48.3 µM (inactive) | 36.4 µM (inactive)
12 | CC(=O)Nc1ccc(/N=C2\C(c3ccccc3)=C(SC3=C(c4ccccc4)/C(=N\c4ccc(NC(C)=O)cc4)c4ccccc43)c3ccccc32)cc1 | 27.2 µM (inactive) | 34.5 µM (inactive) | 31.8 µM (inactive) | 51.5 µM (inactive) | 46 µM (inactive) |  | 37.8 µM (inactive) | 31.3 µM (inactive) | 36.7 µM (inactive) | 56 µM (inactive) | 28.4 µM (inactive) | 49.8 µM (inactive) | 31 µM (inactive) | 27 µM (inactive) | 37.3 µM (inactive) | 61.2 µM (inactive) | 31.1 µM (inactive) | 39.5 µM (inactive) | < 0.01 µM (active)
13 | COC(=O)C1OC(O[C@H]2CC[C@]3(C)[C@H]4CC=C5[C@@H]6CC(C)(C)CC[C@]6(C(=O)OC6OCC(O)C(O)C6OC6OC(C)C(OC7OCC(OC8OCC(O)C(O)C8O)C(O)C7O)C(O)C6O)[C@H](O)C[C@@]5(C)[C@]4(C)CC[C@H]3C2(C)C)C(O)C(O)C1O (some centres not stated) | 4.16 µM (inactive) | 2.32 µM (inactive) | 3.54 µM (inactive) | 2.77 µM (inactive) | 3.09 µM (inactive) | 3.29 µM (inactive) | 2.13 µM (inactive) | 2.43 µM (inactive) | 2.71 µM (inactive) | 3.08 µM (inactive) | 2.66 µM (inactive) | 5.83 µM (inactive) | 3.05 µM (inactive) | 3.72 µM (inactive) | 6.32 µM (inactive) | 1.8 µM (inactive) | 4.19 µM (inactive) | 3.02 µM (inactive) | 11.4 µM (inactive)
14 | Cc1ccccc1NC(=N)Nc1ccccc1C | > 100 µM (inactive) | > 100 µM (inactive) | > 100 µM (inactive) | > 100 µM (inactive) | > 100 µM (inactive) | > 100 µM (inactive) | > 100 µM (inactive) | > 100 µM (inactive) | > 100 µM (inactive) | > 100 µM (inactive) | > 100 µM (inactive) | > 100 µM (inactive) | > 100 µM (inactive) | > 100 µM (inactive) | > 100 µM (inactive) | > 100 µM (inactive) | > 100 µM (inactive) | > 100 µM (inactive) | > 100 µM (inactive)
15 | COc1ccc2c(c1OC)C(=O)O[C@@H]2[C@H]1c2c(cc3c(c2OC)OCO3)CCN1C [NOSCAPINE] | 33.5 µM (inactive) |  | 62.5 µM (inactive) | > 100 µM (inactive) | 55.1 µM (inactive) | 56.9 µM (inactive) | > 100 µM (inactive) | 79.1 µM (inactive) | 40 µM (inactive) | 80.5 µM (inactive) | 30.3 µM (inactive) | 41 µM (inactive) | 30.3 µM (inactive) | 45.8 µM (inactive) | 49.9 µM (inactive) | > 100 µM (inactive) | 50.1 µM (inactive) | 34.1 µM (inactive) | 30.8 µM (inactive)
